In US20250179114A1, “Anti-Inflammatory Compound and Use Thereof” (DUALITY BIOLOGICS (SUZHOU) CO., LTD., priority 2021, published 2025):
Blank lines part the entries; values can stand above or below the molecule they belong to.

Assays:
glucocorticoid receptor = molecular target: T1, glucocorticoid receptor (Homo sapiens, UniProt P04150); experiment: Activity assay of glucocorticoid receptor reporter gene GRE; type: cell-based; conditions: HEK293 cells transfected with pGL5 and pBIND-GR; 24 h; Dual-Glo luciferase
T1 construct: host or cells: HEK293
T1 sequence (P04150 1-777): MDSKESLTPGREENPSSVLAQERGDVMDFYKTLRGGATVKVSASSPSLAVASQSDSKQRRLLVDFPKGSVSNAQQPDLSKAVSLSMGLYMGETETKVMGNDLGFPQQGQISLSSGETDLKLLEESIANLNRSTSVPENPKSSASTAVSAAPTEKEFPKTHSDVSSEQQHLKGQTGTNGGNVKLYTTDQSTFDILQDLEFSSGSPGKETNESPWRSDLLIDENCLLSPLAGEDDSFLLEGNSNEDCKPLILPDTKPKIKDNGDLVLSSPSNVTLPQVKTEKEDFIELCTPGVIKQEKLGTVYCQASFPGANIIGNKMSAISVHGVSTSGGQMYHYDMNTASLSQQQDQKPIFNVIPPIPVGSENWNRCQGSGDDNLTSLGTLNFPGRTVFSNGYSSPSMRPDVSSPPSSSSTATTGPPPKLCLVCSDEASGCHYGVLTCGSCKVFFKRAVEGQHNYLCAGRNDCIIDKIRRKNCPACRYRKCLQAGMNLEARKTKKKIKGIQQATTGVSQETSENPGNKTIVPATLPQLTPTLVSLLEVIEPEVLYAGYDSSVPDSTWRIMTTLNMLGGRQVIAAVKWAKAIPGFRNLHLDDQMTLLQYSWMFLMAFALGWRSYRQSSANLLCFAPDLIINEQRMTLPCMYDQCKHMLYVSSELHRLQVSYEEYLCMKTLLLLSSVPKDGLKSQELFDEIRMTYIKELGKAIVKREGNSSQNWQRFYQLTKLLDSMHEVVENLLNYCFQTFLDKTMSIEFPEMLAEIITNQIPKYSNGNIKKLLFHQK
Procedure: (§1) HEK293 cells were cultured in DMEM+10% FBS medium in a carbon dioxide incubator humidified at 37° C. with 5% carbon dioxide.
HEK293 cells were digested with trypsin, and the HEK293 cell resuspension was adjusted to 200,000 cell/mL in medium (96 well plate: 100 μL/well).
Transfection reagent mixtures were prepared according to Tables 5a and 5b below, mixed well and left to stand at room temperature for 20 min.
(§2) The prepared transfection mixtures were added to 10 mL of the cell density-adjusted resuspension, mixed well by turning the mixtures upside down, and seeded into a 96-well plate at a volume of 100 μL/well.
The 96-well plate was incubated in a humidified incubator at 37° C. with 5% carbon dioxide for 24 h.
The test plate was placed back into the incubator and incubated for 24 h.
(§3) The test plate was detected using the Dual-Glo Luciferase Assay System kit from Promega, and the fluorescence signal of Firefly Luciferase and the fluorescence signal of Renilla Luciferase were read using Enspire, respectively.
The final measurement value was a normalized value “F/R” obtained by dividing the Firefly Luciferase fluorescent signal by the Renilla Luciferase fluorescent signal.
The data were copied and pasted into Excel, and the activation rate was obtained through an equation.
The data were imported into MS Excel and subjected to curve fitting by using XLFit excel add-in version 5.4.0.8 to obtain an EC50 value.
(§4) Y is the agonism and X is the concentration of the compound.

GR = molecular target: T2, GR (Homo sapiens, UniProt P04150); experiment: GR luciferase reporter gene elution experiment; type: cell-based; conditions: supernatant removed and washed, then 24 h; for Elution time (Act %) 15 min: incubation 15 min; for Elution time (Act %) 30 min: incubation 30 min; for Elution time (Act %) 1 h: incubation 1 h; for Elution time (Act %) 2 h: incubation 2 h; for Elution time (Act %) 4 h: incubation 4 h
T2 construct: host or cells: HEK293
T2 sequence (P04150 1-777): T1 sequence (P04150 1-777)
Procedure: The compounds of the present application were evaluated for their ability to continue activation upon binding to GR.
as §1
• 1) HEK293 cells were digested with trypsin, and the HEK293 cell resuspension was adjusted to 200,000 cell/mL in medium (96 well plate: 100 μL/well). • 2) Transfection reagent mixtures were prepared according to the table below, mixed well and left to stand at room temperature for 20 min.
as §2, with “• 3) The” for “The”, “μL/well. • 4) The 96-well plate was incubated in a humidified incubator at 37° C. with 5% carbon dioxide for 24 h.” for “μL/well.”
as §3
5. Data Processing • 1) The final measurement value was a normalized value “F/R” obtained by dividing the Firefly Luciferase fluorescent signal by the Renilla Luciferase fluorescent signal. • 2) The data were copied and pasted into Excel, and the activation rate was obtained through an equation.
[formula] • 3) The data were imported into MS Excel and subjected to curve fitting by using XLFit excel add-in version 5.4.0.8 to obtain an EC50 value.
as §4

DBA/1J mice = experiment: Bovine type II collagen mixed adjuvant-induced DBA/1 mouse arthritis (CIA) model; type: in vivo; conditions: Table 10-2; 0.2 mg/kg p.o.; mean
Procedure: Example 6: Assay of Biological Activity of Bovine Type II Collagen Mixed Adjuvant-Induced DBA/1 Mouse Arthritis Model
The potency of the ligand-drug conjugates (ADCs) of the present application was evaluated in a bovine collagen-induced arthritis (CIA) model.
Male DBA/1J mice were obtained from Jackson Labs. The mice were used at 6-8 weeks of age. All animals were given ad libitum access to food and water under a 12-hour light/dark cycle at constant temperature and humidity.
Bovine collagen (Chondrex, Inc. Cat: 20021) was dissolved in 0.1 M acetic acid and stored overnight in a 2-8 C refrigerator at a collagen concentration of 8 mg/mL, and an equal volume of CFA (complete Freund's adjuvant, Difco, Laurence, KS) was added into the collagen solution and emulsified in a high speed homogenizer to make an emulsion. On Day 0, animals in need of immunization were anesthetized with 2%-5% isoflurane and male DBA/J mice were immunized once with a single subcutaneous injection of 50 μL collagen/CFA emulsion at the tail root of 2-3 cm from the body. Three weeks later, namely on Day 21, the tail root was immunized twice with the same volume of collagen emulsion by the same injection method. After the second immunization, 120 animals with an average score of about 2 for the limb arthritis were selected and randomly grouped. The animals were treated by a single intraperitoneal injection of test reagent according to the experimental design after grouping. For the dexamethasone (Sphsine) treatment group, the drug was administered the day after grouping until the end of the trial. The extremities of each group were observed twice weekly for the onset of arthritis from the time of the second immunization, and the observation was continued until the end of the trial.
Scoring according to the degree of lesion (redness and swelling) was performed on a scale of 0-4 points, with a maximum score of 4 for each limb and a total maximum score of 16 for each animal's limbs. The scoring criteria are as follows: 0 points, no redness and swelling; 1 point, 1-2 red and swollen interphalangeal joints; 2 points, 3-4 red and swollen interphalangeal joints; 3 points, more than 4 red and swollen interphalangeal joints; 4 points, severe redness and swelling in toes or fingers to ankle joints or wrist joints. For joint swelling, ankle thickness of hind paw of each animal was measured with a screw micrometer before one immunization. Since the second immunization, measurements were performed 2 times per week, and changes in ankle thickness before and after the immunization were compared. After the trial was completed, all animals were anesthetized with 2-5% isoflurane and then euthanized by exsanguination.
Score AUC: area under the curve for arthritis score. The results are shown in Tables 10-1 and 10-2 and FIGS. 3a-3c.

Structure (SMILES): C[C@]12C=CC(=O)C=C1CC[C@H]1[C@@H]3C[C@H]4O[C@@H](c5ccc(Cc6ccc(N)cc6)s5)O[C@@]4(C(=O)CO)[C@@]3(C)C[C@H](O)[C@@]12F [Compound 17]
- EC50 (glucocorticoid receptor): 0.33 nM
- Elution time (Act %) 15 min (GR): 1.7%
- Elution time (Act %) 30 min (GR): 0.7%
- Elution time (Act %) 1 h (GR): 1.3%
- Elution time (Act %) 2 h (GR): 2.9%
- Elution time (Act %) 4 h (GR): 9.7%

Structure (SMILES): C[C@]12C=CC(=O)C=C1CC[C@@H]1[C@@H]2[C@@H](O)C[C@@]2(C)[C@H]1C[C@H]1O[C@@H](c3cnc(Cc4cccc(N)c4)s3)O[C@]12C(=O)CO [Compound 28, reference compound]
- EC50 (glucocorticoid receptor): 10 nM

Structure (SMILES): C[C@]12C=CC(=O)C=C1CC[C@H]1[C@@H]3C[C@H]4O[C@@H](c5ccn(Cc6ccc(N)cc6)c5)O[C@@]4(C(=O)CO)[C@@]3(C)C[C@H](O)[C@@]12F [Compound 8]
- EC50 (glucocorticoid receptor): 0.07 nM

Structure (SMILES): C[C@]12C=CC(=O)C=C1CC[C@H]1[C@@H]3C[C@H]4O[C@@H](c5ccn(Cc6cccc(N)c6)c5)O[C@@]4(C(=O)CO)[C@@]3(C)C[C@H](O)[C@@]12F [Compound 7]
- EC50 (glucocorticoid receptor): 0.13 nM

Structure (SMILES): CC12C=CC(=O)C=C1CCC1C2C(O)CC2(C)C1CC1OC(c3ccc(Oc4cccc(N)c4)cn3)OC12C(=O)CO [Compound 19, (6aR,6bS,7S,8aS,8bS,10R,11aR,12aS,12bS)-10-(5-(3-aminophenoxy)pyridin-2-yl)-7-hydroxy-8b-(2-hydroxyacetyl)-6a,8a-dimethyl-1,2,6a,6b,7,8,8a,8b,11a,12,12a,12b-dodecahydro-4H-naphtho[2′,1′:4,5]indeno[1,2-d][1,3]dioxol-4-one]
- EC50 (glucocorticoid receptor): > 1000 nM

Structure (SMILES): C[C@@H]1C[C@H]2[C@@H]3CCC4=CC(=O)C=C[C@]4(C)[C@@]3(F)[C@@H](O)C[C@]2(C)[C@@]1(O)C(=O)CO [Dexamethasone, dexamethasone]
- Arthritis score AUC (area under the curve for arthritis score) (DBA/1J mice): 24.50
- Arthritis score D 0 (DBA/1J mice): 0.00
- Arthritis score D 21 (DBA/1J mice): 0.00
- Arthritis score D 24 (DBA/1J mice): 0.00
- Arthritis score D 28 (DBA/1J mice): 0.00
- Arthritis score D 31 (DBA/1J mice): 2.10
- Arthritis score D 35 (DBA/1J mice): 2.90
- Arthritis score Day 38 (DBA/1J mice): 1.30
- Arthritis score Day 42 (DBA/1J mice): 0.50
- Arthritis score Day 45 (DBA/1J mice): 0.20
- Arthritis score Day 49 (DBA/1J mice): 0.00
- Arthritis score Day 52 (DBA/1J mice): 0.00
- Arthritis score Day 56 (DBA/1J mice): 0.00
- Elution time (Act %) 15 min (GR): 9.4%
- Elution time (Act %) 30 min (GR): 10.0%
- Elution time (Act %) 1 h (GR): 7.2%
- Elution time (Act %) 2 h (GR): 6.2%
- Elution time (Act %) 4 h (GR): 31.9%

Structure (SMILES): C[C@]12C=CC(=O)C=C1CC[C@@H]1[C@@H]2[C@@H](O)C[C@@]2(C)[C@H]1C[C@H]1O[C@@H](c3ccc(Cc4ccc(N)cc4)s3)O[C@]12C(=O)CO [Compound 15]
- EC50 (glucocorticoid receptor): 0.63 nM

Results, then the molecule that gave them:

- EC50 (glucocorticoid receptor): 0.37 nM
Structure (SMILES): C[C@]12C=CC(=O)C=C1CC[C@@H]1[C@@H]2[C@@H](O)C[C@@]2(C)[C@H]1C[C@H]1O[C@@H](c3ccc(Cc4cccc(N)c4)s3)O[C@]12C(=O)CO [Compound 11]

- EC50 (glucocorticoid receptor): > 1000 nM
Structure (SMILES): C[C@]12C=CC(=O)C=C1CC[C@@H]1[C@@H]2[C@@H](O)C[C@@]2(C)[C@H]1C[C@H]1O[C@@H](c3coc(Cc4cccc(N)c4)c3)O[C@]12C(=O)CO [Compound 20]

- EC50 (glucocorticoid receptor): 0.28 nM
Structure (SMILES): C[C@]12C=CC(=O)C=C1CC[C@@H]1[C@@H]2[C@@H](O)C[C@@]2(C)[C@H]1C[C@H]1O[C@@H](c3cc(Cc4cccc(N)c4)cs3)O[C@]12C(=O)CO [Compound 18]

- EC50 (glucocorticoid receptor): > 1000 nM
Structure (SMILES): C[C@]12C=CC(=O)C=C1CC[C@@H]1[C@@H]2[C@@H](O)C[C@@]2(C)[C@H]1C[C@H]1O[C@H](c3cnc(Cc4cccc(N)c4)s3)O[C@]12C(=O)CO [Compound 28S]
